“Also recorded” adds a separate entry of the source. Peptide text beside a SMILES is read from it.
Test system: medium spiny neurons (MSNs) in the nucleus accumbens
Assay: Brain slice patch-clamp: intrinsic excitability and passive properties of MSNs
Type: cell-based, male C57BL6/J mice
Experimental: Brain slices from male C57BL6/J mice aged 28–45 days were prepared to contain the nucleus accumbens (NAc). Mice were anesthetized with Isoflurane (Baxter, Deerfield, IL) and brains extracted following decapitation. Brains were sliced with a vibratome (Leica Microsystems, Wetzlar, Germany) to achieve 300 μm coronal slices. Brains sliced in extracellular salts; consisting of the following (mM): Tris‐HCl 72, Tris‐Base18, NaH2PO4 1.2, KCl 2.5, HEPES 20, sucrose 20, NaHCO3 25, glucose 25, MgSO4 10, Na‐pyruvate 3, Na‐ascorbate 5 and CaCl2 0.5 (Sigma‐Aldrich, St. Louis, MO); 300–310 mOsm, pH 7.4 and was continuously oxygenated (mixture of 95%/5% O2/CO2). Slices were then placed in a 32°C recovery chamber with freshly prepared tris‐based aCSF for 15 min before transfer to a 32°C chamber of standard aCSF consisting of the following extracellular salts (mM): NaCl 123.9, KCl 3.1, glucose 10, MgCl2 1, CaCl2 2, NaHCO3 24, and NaH2PO4 1.16 (Sigma‐Aldrich, St. Louis, MO); 300–310 mOsm, pH 7.4 and continuously oxygenated (mixture of 95%/5% O2/CO2). Finally, slices were equilibrated at RT for at least 45 min. DMSO and/or FLPK were added to standard aCSF to achieve a bath concentration of 0.1% DMSO and 50 μM FLPK. Brain slices were incubated in a separate chamber with standard aCSF containing 0.1% DMSO (control) or 50 μM FLPK and continuously oxygenated for 30 min. Somatic recordings from NAc visually identified medium spiny neurons (MSNs) in standard aCSF were carried out at 31°C using borosilicate glass pipettes (resistance of 3–5 MΩ) filled with an internal solution containing (mM): D‐gluconate (potassium salt) 145, MgCl2 2, EGTA 0.1, Na2ATP 2, and HEPES 10 (pH 7.2; 290 mOsm). Either an Axopatch 200B or a Multiclamp 700B amplifier was used to perform whole‐cell patch clamp experiments. For the Axopatch 200B, a digidata 1,200 analog–digital interface and pClamp 9 software with filtering at 20 kHz and digitizing at 5 kHz were used for data acquisition and stimulation. For the Multiclamp 700B, a digidata 1,350 analog‐digital interface and pClamp 10.9 with filtering at 20 kHz and digitizing at 5 kHz were used for data acquisition and stimulation. First a giga‐seal was formed and the cell membrane ruptured after which MSNs were held in […] for 1 min to measure resting membrane potential. Next, MSNs were held in current clamp mode to assess cell activity. Evoked action potentials with a range of current injections from 10 pA to 220 pA with 800 ms every 10 pA were measured and number of action potentials, instantaneous frequency, and other electrical parameters were determined. Average instantaneous firing frequency (IFF) is defined as the average of all reciprocal interspike intervals (ms) at a particular current step. Cells with a current threshold above 180 pA, a resting membrane potential above −60 mV, and an input resistance outside the range of 70–250 MΩ were excluded. To isolate persistent Na^+ current (I NaP) in whole‐cell voltage‐clamp recordings, we used a modified aCSF containing 20 mM tetraethylammonium chloride (TEA) and 0.3 mM CdCl2. The voltage‐dependence of I NaP was determined using standard protocols (Yue, Remy, Su, Beck, & Yaari, 2005). Membrane capacitances and Rseries were compensated electronically. Series resistances (Rs) before compensation were in the range of 5–20 MΩ and were routinely corrected by 75%–85%. Data obtained from a given cell were rejected if Rs was larger than 20 MΩ or changed by > 20% during the course of the experiment. Membrane capacitance was calculated using the equation: capacitance = membrane time constant/input resistance (Meitzen, Weaver, Brenowitz, & Perkel, 2009). The membrane input resistance was measured by a series of 600 ms hyperpolarizing current steps from −50 to 0 pA, step 10 pA with 1 s interval. The slope of the current‐voltage curve was designated as the membrane input resistance. […]

CC(=O)N[C@@H](Cc1ccccc1)C(=O)N[C@@H](CC(C)C)C(=O)N1CCC[C@H]1C(=O)N[C@@H](CCCCN)C(N)=O [FLPK] (Ac-FLPK-NH2)
effect on MSN firing and passive properties (50 µM FLPK vs 0.1% DMSO): significantly increased the number of evoked action potentials and the instantaneous firing frequency; also recorded: no changes in several other electrophysiological parameters including membrane potential and input resistance; also recorded: increase in the total number of action potentials as well as instantaneous firing frequency
Tau (τ), membrane time constant (50 µM FLPK, 30 min incubation, mean ± SEM, n = 5–12, DMSO 16.1 ± 2.1, p = .157): 11.9 ± 1.6 ms
Cm (50 µM FLPK, 30 min incubation, mean ± SEM, n = 5–12, DMSO 90.2 ± 14.5, p = .521): 80.1 ± 7.6 pF
Ithr (50 µM FLPK, 30 min incubation, mean ± SEM, n = 5–12, DMSO 110 ± 14.2, p = .221): 78 ± 18.3 pA
Rin (50 µM FLPK, 30 min incubation, mean ± SEM, n = 5–12, DMSO 119.1 ± 10.3, p = .088): 147.2 ± 11.3 MΩ
Vthr (50 µM FLPK, 30 min incubation, mean ± SEM, n = 5–12, DMSO −40.5 ± 1.1, p = .422): −38.7 ± 2.2 mV
RMP (50 µM FLPK, 30 min incubation, mean ± SEM, n = 5–12, DMSO −75.3 ± 1.5, p = .125): −79.7 ± 2.6 mV
number of evoked action potentials (50 µM FLPK, current step 180 pA, n = 7, DMSO 14.9 ± 2.3, n = 14, p < .016): 23.7 ± 1.2
instantaneous firing frequency (50 µM FLPK, current step 180 pA, n = 7, DMSO 19.7 ± 2.6 Hz, n = 14, p < .0395): 28.6 ± 2.1 Hz

Reference: PMC7363588, “Mapping of the FGF14:Nav1.6 complex interface reveals FLPK as a functionally active peptide modulating excitability” (Physiological Reports, 2020)
